Test results from paper PMC3723632, “A Multi-targeted Drug Candidate with Dual Anti-HIV and Anti-HSV Activity” (PLoS Pathogens, 2013).
≈ marks a conversion by molar mass, not a printed value. Like-named read-outs stand apart in the source and are kept apart here.

How the values were obtained:
PBMC = test: Bio-Plex chemokine assay in PBMC cultures; assay type: cell-based, human; conditions: even at 500 µg/ml
Description: Figure 9 Expression of CC-chemokines, CCR5 and chemokine mRNA expression in PBMC cultures after drug treatment. Panel A: Production of CC-chemokines by PBMC and the effects of adefovir, tenofovir, and PMEO-DAPym on the expression of the CCR5 receptor. Freshly isolated PBMCs from four healthy donors were incubated for 24 h with medium only (NC) or with adefovir, tenofovir, or PMEO-DAPym. We collected the supernatants and measured the concentrations of MIP-1α (▪), MIP-1β (▴), and RANTES (•) using a Bioplex system (Bio-Rad, Hercules, CA). Shown are means ± SEM. The cells were also collected, and the expression of the CCR5 receptor (□) was measured with flow cytometry using the PE-labeled CCR5 (clone 2D7) mAb; it is shown as percentage of control (± SEM) from four independent representative experiments. Panel B: Chemokine mRNA expression upon PMEO-DAPym exposure to PBMC. RT-PCR analysis of MIP-1α, MIP-1β, RANTES, and GAPDH (control) expression in PBMC treated with 100-µg/ml PMEO-DAPym for 4 h. Similar results were obtained with PBMC from three different donors. Results from one representative donor are shown.
Freshly isolated PBMC were cultured in the presence of adefovir, tenofovir, and PMEO-DAPym, and culture supernatants were collected after 24 h. We determined the cytokine production profile using the Bio-Plex 200 system (Bio-Rad, Hercules, CA) and a Bio-Plex Human chemokine assay according to the manufacturer's instructions and as described in detail earlier. The assay kit contains beads conjugated with mAbs specific for interferon-inducible protein-10 (IP-10), macrophage inflammatory protein-1α (MIP-α), and MIP-1β, and regulated on activation normal T-cell expressed and secreted (RANTES). For each chemokine, eight standards ranging from approximately 1.5 pg/ml to 32,000 pg/ml were constructed, and the minimum detectable dose was between 1.5 pg/ml and 8 pg/ml. Standard curves and the concentrations of chemokines within samples were generated with the Bio-Plex Manager 4.1 software.

HSV-1 (KOS strain) = test: Pre-treatment of PHK cell cultures, HSV-1 infection (CPE)
Description: The HSV-induced cytopathic effect (CPE) was evaluated in HSV-infected HEL and PHK cultures as described [44], [48].

[1] = tested on: HSV-2 (G and clinical isolates); test: microbe, parasite or virus in culture; assay type: cell-based; conditions: Human alphaherpesvirus 2, HEL
Description: (§1) Figure 2 Antiherpetic activity of test compounds in cell culture. Confluent HEL cell cultures were exposed to 100 TCID50 of clinical virus isolates [wild-type HSV-1 (panel A), wild-type HSV-2 (panel B), TK^− HSV-1 (panel C) and TK^− HSV-2 (panel D)] in the presence of drugs at different concentrations and incubated for 3 days at 37°C. […] Data shown are the means of at least two independent experiments.

[2] = tested on: HSV-1 (KOS and clinical isolates); test: microbe, parasite or virus in culture; assay type: cell-based; conditions: Human alphaherpesvirus 1, HEL
Description: as §1

HSV-2 (G) [3] = test: HSV-2 infection of primary monocyte/macrophage (M/M) cultures; assay type: cell-based; conditions: for EC50: Human alphaherpesvirus 2
Description: We obtained human PBMC from the blood of healthy seronegative donors using Ficoll–Hypaque density gradient centrifugation. The PBMC were resuspended in RPMI 1640 medium supplemented with 20% heat-inactivated serum and then seeded into 48-well plates (1.8×10^6 cells/well). M/M were separated by adherence onto plastic. After 5 days, non-adherent cells were carefully removed by repeated gentle washings with warm medium, and adherent M/M were cultured for an additional 3 days to mature and to form a monolayer. M/M were estimated to be 10^5 cells/well at the time of infection. […]. Similarly, macrophage cultures were treated with the same concentrations of adefovir and tenofovir. Macrophage cultures were then infected with HSV-2 (G) (100 TCID50) in the presence of the compounds. After 2 h of adsorption, the cultures were extensively washed to remove any residual virus particles. Fresh complete medium and compounds, at the established concentrations, were then added to the cultures. Appropriate positive (infected but not treated) and mock-infected negative (uninfected and untreated) M/M controls were run for each experiment as well. All assays were performed in triplicate. […] We determined the amount of infectious virus in the supernatants 5–6 days after infection using the cytopathic effect assay. Tenfold serially diluted supernatants were added to confluent monolayers of Vero cells in 96-well plates (100 µl/well, 6 parallel wells). […] The titers of virus produced were calculated according to the Reed and Muench method and expressed as 50% tissue culture infective dose per mL (TCID50/mL).

HSV-2 (G) [4] = test: as above; assay type: cell-based

Structure (SMILES): Nc1ncnc2c1ncn2CCOCP(=O)(O)O [Adefovir, 9-(2-phosphonylmethoxyethyl)adenine]
- production of CC-chemokines (PBMC): Neither adefovir nor tenofovir induced notable production of CC-chemokines
- EC50 (HSV-1 (KOS strain); Human alphaherpesvirus 1, read-out: 50% effective concentration, PHK, HSV-1 KOS, +2 h to 72 h (control, drug present whole incubation)): 5.1 ± 1.7 µg/mL (≈ 18.7 µM)
- EC50 (HSV-1 (KOS strain); Human alphaherpesvirus 1, read-out: 50% effective concentration, PHK, HSV-1 KOS, pretreatment −2.5 h to 0 h): 30 µg/mL (≈ 110 µM)
- EC50 (HSV-1 (KOS strain); Human alphaherpesvirus 1, read-out: 50% effective concentration, PHK, HSV-1 KOS, pretreatment −6 h to 0 h): 23.3 µg/mL (≈ 85.3 µM)
- EC50 (HSV-1 (KOS strain); Human alphaherpesvirus 1, read-out: 50% effective concentration, PHK, HSV-1 KOS, pretreatment −18 h to 0 h): 8.2 ± 1.6 µg/mL (≈ 30 µM)
- EC50 ([1]; HSV-2 (G)): 6.3 ± 2.6 µg/mL (≈ 23.1 µM)
- EC50 ([1]; HSV-2, average of seven TK-deficient clinical isolates): 7.5 ± 1.5 µg/mL (≈ 27.5 µM)
- EC50 ([1]; HSV-2, average of seven clinical isolates): 5.9 ± 0.9 µg/mL (≈ 21.6 µM)
- EC50 ([2]; HSV-1 (KOS)): 4.7 ± 1.8 µg/mL (≈ 17.2 µM)
- EC50 ([2]; HSV-1, average of six TK-deficient clinical isolates): 7 ± 1.4 µg/mL (≈ 25.6 µM)
- EC50 ([2]; HSV-1, average of six clinical isolates): 6.2 ± 1 µg/mL (≈ 22.7 µM)
- Virus production by HSV2-infected macrophages 6 days after infection (CPE reduction) (HSV-2 (G) [3]; 0.0032 µg/ml): 1.6×10^4 TCID50/ml
- Cytopathicity (CPE) on macrophages 6 days after infection % CPE (HSV-2 (G) [3]; 0.016 µg/ml): 60%
- Virus production by HSV2-infected macrophages 6 days after infection (CPE reduction) (HSV-2 (G) [3]; 0.016 µg/ml): 7.2×10^3 TCID50/ml
- Cytopathicity (CPE) on macrophages 6 days after infection % CPE (HSV-2 (G) [3]; 0.08 µg/ml): 40%
- Virus production by HSV2-infected macrophages 6 days after infection (CPE reduction) (HSV-2 (G) [3]; 0.08 µg/ml): 1.8×10^3 TCID50/ml
- Virus production by HSV2-infected macrophages 6 days after infection (CPE reduction) (HSV-2 (G) [3]; 0.4 µg/ml): 8×10^2 TCID50/ml
- Virus production by HSV2-infected macrophages 6 days after infection (CPE reduction) (HSV-2 (G) [3]; 2 µg/ml): No virus
- Virus production by HSV2-infected macrophages 6 days after infection (CPE reduction) (HSV-2 (G) [3]; 10 µg/ml): No virus
- Virus production by HSV2-infected macrophages 6 days after infection (CPE reduction) (HSV-2 (G) [3]; 50 µg/ml): No virus
- inhibition at 0.0032 µg/mL (HSV-2 (G) [3]; Human alphaherpesvirus 2, 144 h, 0.0032 µg/ml, M/M, day 6, read-out: Inhibition of viral replication (% to control)): < 0%
- inhibition at 0.016 µg/mL (HSV-2 (G) [3]; Human alphaherpesvirus 2, 144 h, 0.016 µg/ml, M/M, day 6, read-out: Inhibition of viral replication (% to control)): 49%
- inhibition at 0.08 µg/mL (HSV-2 (G) [3]; Human alphaherpesvirus 2, 144 h, 0.08 µg/ml, M/M, day 6, read-out: Inhibition of viral replication (% to control)): 87%
- inhibition at 0.4 µg/mL (HSV-2 (G) [3]; Human alphaherpesvirus 2, 144 h, 0.4 µg/ml, M/M, day 6, read-out: Inhibition of viral replication (% to control)): 94%
- inhibition at 2 µg/mL (HSV-2 (G) [3]; Human alphaherpesvirus 2, 144 h, 2 µg/ml, M/M, day 6, read-out: Inhibition of viral replication (% to control)): 100%
- inhibition at 10 µg/mL (HSV-2 (G) [3]; Human alphaherpesvirus 2, 144 h, 10 µg/ml, M/M, day 6, read-out: Inhibition of viral replication (% to control)): 100%
- inhibition at 50 µg/mL (HSV-2 (G) [3]; Human alphaherpesvirus 2, 144 h, 50 µg/ml, M/M, day 6, read-out: Inhibition of viral replication (% to control)): 100%
- EC50 (HSV-2 (G) [3]; HSV-2 (G), human monocyte/macrophages): 0.016 ± 0.004 µg/mL (≈ 0.0586 µM)
- EC50 (HSV-2 (G) [3]; M/M, range over the compounds): 0.02 to 0.2 µg/mL (≈ 0.0732 to 0.732 µM)
- inhibition of HSV-2 replication (HSV-2 (G) [3]; M/M, 2- to 10-µg/ml): virtually completely inhibited
- Cytopathicity (CPE) on macrophages 6 days after infection % CPE (HSV-2 (G) [4]; 0.0032 µg/ml): 80%
- Cytopathicity (CPE) on macrophages 6 days after infection % CPE (HSV-2 (G) [4]; 0.4 µg/ml): 30%
- Cytopathicity (CPE) on macrophages 6 days after infection % CPE (HSV-2 (G) [4]; 2 µg/ml): 0–5%
